Structures can show the parent of a compound that is named as a salt.

This data set is described as follows: in vitro. The conditions noted are these: human, hek293t cells.
The viability is a read-out of living cells in per cent, often relative to untreated cells. With `O=C(Cc1cccc(F)c1)N1CCSSCC1` [10-L21, 1-(1,2,5-dithiazepan-5-yl)-2-(3-fluorophenyl)ethan-1-one], the viability at 48 h, 25 µM was 108%. With `C=CC(=O)NC[C@@H]1C[C@H](F)CN1Cc1ccnn1C` [2-E05, N-{[(2S,4S)-4-fluoro-1-[(1-methyl-1H-pyrazol-5-yl)methyl]pyrrolidin-2-yl]methyl}prop-2-enamide], the viability at 48 h, 25 µM was 78.5%. `Cc1ccc(NC(=O)CCl)cc1S(=O)(=O)N(C)C` [4-A09, 2-chloro-N-[3-(dimethylsulfamoyl)-4-methylphenyl]acetamide]: the viability at 48 h, 25 µM was -0.165%. Consider `O=C(CCl)N1CCn2c(cc3ccccc32)C1` [5-A20, 2-chloro-1-{1H,2H,3H,4H-pyrazino[1,2-a]indol-2-yl}ethan-1-one], for which the viability at 48 h, 25 µM stood at 0.499%. Take `N#CC(=Cc1ccco1)C(=O)NS(=O)(=O)c1cccc2cnccc12` [9-H20, 2-cyano-3-(furan-2-yl)-N-(isoquinoline-5-sulfonyl)prop-2-enamide]: the viability at 48 h, 25 µM came to 105%. For the molecule `C=CC(=O)NC1CCC(F)(F)CC1F` (centres unmarked) [1-E11, N-(2,4,4-trifluorocyclohexyl)prop-2-enamide], the viability at 48 h, 25 µM was 69.4%.

Take `CC(Cl)C(=O)Nc1ccc(S(=O)(=O)N2CCCCC2)cc1` (centres unmarked) [4-A12, 2-chloro-N-[4-(piperidine-1-sulfonyl)phenyl]propanamide]: the viability at 48 h, 25 µM was 64.8%. Turning to `O=C(CCl)Nc1cccc(CN2CCSCC2)c1` [5-J14, 2-chloro-N-{3-[(thiomorpholin-4-yl)methyl]phenyl}acetamide hydrochloride], the viability at 48 h, 25 µM was found to be 1.12%. Regarding `CCN(CC)c1ccc(NC(=O)CCl)cc1` [6-N10, 2-chloro-N-[4-(diethylamino)phenyl]acetamide], the viability at 48 h, 25 µM was found to be 2.56%.

Regarding `O=C(CCl)Nc1ccnn1Cc1ccccc1Cl` [6-O08, 2-chloro-N-{1-[(2-chlorophenyl)methyl]-1H-pyrazol-5-yl}acetamide], the viability at 48 h, 25 µM came to 0.422%. On to `C=CC(=O)N(CC)CC(=O)Nc1ccc2c(c1)nc1n2CCCCC1` [3-M19, N-[({1,8-diazatricyclo[7.5.0.0,2,7]tetradeca-2,4,6,8-tetraen-5-yl}carbamoyl)methyl]-N-ethylprop-2-enamide], for which the viability at 48 h, 25 µM is 35.8%. As for `N#CC(=Cc1ccncc1)C(=O)Nc1cccc(Cl)c1` [8-B19, N-(3-chlorophenyl)-2-cyano-3-(pyridin-4-yl)prop-2-enamide], the figure is 85.5%; as for `COc1ccc2c(c1)OCCN(C(=O)C(C)Cl)C2` (centres unmarked) [7-E04, 2-chloro-1-(8-methoxy-2,3,4,5-tetrahydro-1,4-benzoxazepin-4-yl)propan-1-one], 122%; as for `C=CC(=O)N1CCn2cccc2C1c1ccncc1` (centres unmarked) [3-M03, 1-[1-(pyridin-4-yl)-1H,2H,3H,4H-pyrrolo[1,2-a]pyrazin-2-yl]prop-2-en-1-one], 45.2%. `CC(Cl)C(=O)N[C@H](CC(N)=O)c1cccc(Cl)c1` (stereo partly drawn) [7-O09, (3R)-3-(3-chlorophenyl)-3-(2-chloropropanamido)propanamide]: the viability at 48 h, 25 µM came out at 102%. `C=CC(=O)N[C@@H](CC(N)=O)c1cccc(Cl)c1` [1-I15, N-[(1S)-2-carbamoyl-1-(3-chlorophenyl)ethyl]prop-2-enamide]: the viability at 48 h, 25 µM amounted to 81.6%. As for `CC(Cl)C(=O)NCc1ccn(CC(F)F)n1` (centres unmarked) [7-I17, 2-chloro-N-{[1-(2,2-difluoroethyl)-1H-pyrazol-3-yl]methyl}propanamide], the figure is 88.7%.

As to `N#CC(=Cc1ccc(N2CCOCC2)cc1)C(=O)Nc1nccs1` [9-F17, 2-cyano-3-[4-(morpholin-4-yl)phenyl]-N-(1,3-thiazol-2-yl)prop-2-enamide], the viability at 48 h, 25 µM was found to be 95.6%. In the case of `CC(Cl)C(=O)Nc1cccc(C(F)(F)F)c1` (centres unmarked) [5-P14, 2-chloro-N-[3-(trifluoromethyl)phenyl]propanamide], the viability at 48 h, 25 µM came to 90.7%. On to `N#CC(=Cc1cccc([N+](=O)[O-])c1)C(=O)NCc1ccc(Cl)cc1` [8-F16, N-[(4-chlorophenyl)methyl]-2-cyano-3-(3-nitrophenyl)prop-2-enamide], for which the viability at 48 h, 25 µM turned out to be 0.958%. As to `O=C1C=CC(=O)N1c1ccc(F)cc1` [10-M10, 1-(4-fluorophenyl)-2,5-dihydro-1H-pyrrole-2,5-dione], the viability at 48 h, 25 µM was 68.4%. With `CC(Cl)C(=O)N1C2CCC1CC(O)(Cc1ccc(F)cc1F)C2` (centres unmarked) [7-G18, 2-chloro-1-{3-[(2,4-difluorophenyl)methyl]-3-hydroxy-8-azabicyclo[3.2.1]octan-8-yl}propan-1-one], the viability at 48 h, 25 µM was determined as 60%. For the molecule `CC(Cl)C(=O)NC(=O)Nc1ccc2c(c1)OCCO2` (centres unmarked) [5-D08, 3-(2-chloropropanoyl)-1-(2,3-dihydro-1,4-benzodioxin-6-yl)urea], the viability at 48 h, 25 µM was 84.1%. `CC(Cl)C(=O)N(C)Cc1cc(Cl)cn1C` (centres unmarked) [6-P21, 2-chloro-N-[(4-chloro-1-methyl-1H-pyrrol-2-yl)methyl]-N-methylpropanamide]: the viability at 48 h, 25 µM is 103%. With `O=C(CCl)c1ccc(NC(=O)c2ccccc2)cc1` [10-B06, N-[4-(2-chloroacetyl)phenyl]benzamide], the viability at 48 h, 25 µM came out at 1.37%. Take `Cc1cc(C)c(NC(=O)C(C#N)=Cc2cc(F)ccc2F)c(C)c1` [8-A10, 2-cyano-3-(2,5-difluorophenyl)-N-(2,4,6-trimethylphenyl)prop-2-enamide]: the viability at 48 h, 25 µM stood at 2.85%. Turning to `C=CC(=O)Nc1nc(C)c(CC(C)C)s1` [1-J12, N-[4-methyl-5-(2-methylpropyl)-1,3-thiazol-2-yl]prop-2-enamide], the viability at 48 h, 25 µM was determined as 0.934%. `CC(Cl)C(=O)NCC1CN(c2ccc(Cl)cc2)CCO1` (centres unmarked) [6-F07, 2-chloro-N-{[4-(4-chlorophenyl)morpholin-2-yl]methyl}propanamide]: the viability at 48 h, 25 µM was 101%. Regarding `COc1cc(OC)c(NC(=O)CCl)cc1Cl` [4-G11, 2-chloro-N-(5-chloro-2,4-dimethoxyphenyl)acetamide], the viability at 48 h, 25 µM is 0.402%. On to `CCOC(=O)c1cnn2ccc(NC(=O)C(C)Cl)cc12` (centres unmarked) [5-N21, ethyl 5-(2-chloropropanamido)pyrazolo[1,5-a]pyridine-3-carboxylate], for which the viability at 48 h, 25 µM was determined as 89.8%. Turning to `COc1ccccc1NC(=O)C(C#N)=Cc1ccc(F)cc1` [8-E18, 2-cyano-3-(4-fluorophenyl)-N-(2-methoxyphenyl)prop-2-enamide], the viability at 48 h, 25 µM came out at 81%. As for `C=CC(=O)Nc1ccccc1CCC(N)=O` [1-A18, N-[2-(2-carbamoylethyl)phenyl]prop-2-enamide], the viability at 48 h, 25 µM was 125%.

As for `C=CC(=O)N[C@@H](CN(C)C)c1ccccc1` [2-M19, N-[(1R)-2-(dimethylamino)-1-phenylethyl]prop-2-enamide], the viability at 48 h, 25 µM was found to be 87.1%. In the case of `CC(Cl)C(=O)N1CCC(N(CC(F)(F)F)S(C)(=O)=O)CC1` (centres unmarked) [7-C07, N-[1-(2-chloropropanoyl)piperidin-4-yl]-N-(2,2,2-trifluoroethyl)methanesulfonamide] it was 94.8%; in that of `Cc1ccc(F)c(N2CCC(NC(=O)CCl)CC2)c1` [5-M14, 2-chloro-N-[1-(2-fluoro-5-methylphenyl)piperidin-4-yl]acetamide], 134%.

The values above are taken from PMC11995724, “Antibiotic target discovery by integrated phenotypic and activity-based profiling of electrophilic fragments” (Cell chemical biology, 2025).
